Where two headings read alike, the source gives them in different places.

Series [1] can be described thus: Acute toxicity by oral or intraperitoneal administration to ddY mice. The settings on record: mouse, in vivo, 7 days, Litchfield-Wilcoxon. As for the experimental part:
The acute toxicity of the compound according to this invention was determined by forced oral or intraperitoneal administration thereof to ddY mice.
To prepare each specimen to be administered, a predetermined amount of each compound shown in Table 1 was dissolved in a physiological saline or suspended in a 0.2% solution of carboxymethylcellulose in a physiological saline. Each specimen was administered orally to a ddY mouse via its stomach tube or injected intraperitoneally.

For series [2], the system named is Sarcoma-180. The experiment in a line: Activity against a transplantable cancer, Sarcoma-180. The class given is in vivo, ICR-JCL mice. As to conditions: 100 mg/Kg ip once a day for 10 days, starting 24 hrs. after inoculation. As for the experimental part: Sarcoma-180 cells (1×10^6 cells) were inoculated subcutaneously into the back skin of each of ICR-JCL mice.
Chemotherapy was given intraperitoneally 24 hrs. after inoculation and performed once a day for 10 days. Each specimen to be administered was prepared by dissolving or suspending 30 mg of each compound according to this invention in 1 ml of a pysiological saline or in 1 ml of a 0.2% solution of carboxymethylcellulose in a physiological saline, respectively.
All the solutions and the suspensions thus prepared were injected at a volume of 0.1 ml as a single dose (100 mg/Kg).
The inhibition ratio (%) was calculated according to the following equation: […]
wherein T represents the mean weight of the tumor Sarcoma-180 in a tested group of mice; and C represents the mean weight of the tumor in a control group of mice.

The test system of series [3] is synthesis of chondroitin sulfate (glycosaminoglycan) in epiphysial cartilages. Briefly: Effect on synthesis of chondroitin sulfate (35S labelled glycosaminoglycan) in epiphysial cartilage. Type of series: cell-based, chick embryos. From the text: In each Figure, the vertical axis denotes the amount of ^35 S labelled chondroitin sulfate (^35 S cpm×10^-4 /μmol·uronic acid), and the horizontal axis denotes the concentration (mM) of each xylopyranoside compound in the culture medium, and
x x: Total uptake amount of ^35 S labelled chondroitin sulfate,
: Amount of ^35 S labelled chondroitin sulfate in culture medium, and
: Amount of ^35 S labelled chondroitin sulfate in tissue.
Epiphysial cartilages were taken from chick embryos aged 12 days in the Tyrode's medium under ice-cooling, and excess tissues were removed therefrom. To 150 mg of cartilages corresponding to five embryos, 5 ml of BGJb [an entirely synthetic culture medium prepared according to a recipe of GIBCO (Grand Island Biological Company)] was added, followed by pre-incubation at a temperature of 37° C. After replacing the culture medium, further 1 ml of BGJb and 5μCi Na2^35 SO4 were added, and the culture system was kept at 37° C. for 3 hours. The culture medium was then replaced by a fresh chase medium containing no isotope. After keeping the culture system at 37° C. for 1 hour, the culture medium was separated from the tissues. To study the effects of the xyloside compound on the synthesis of glycosaminoglycan, the xyloside compound was added in the predetermined concentration to the pre-incubation and incubation media.
After the incubation, the labeled medium containing Na2^35 SO4 was combined with the chase medium. Pronase-P was added thereto in a 0.5 M tris-HCl buffer solution (pH 8.0), and the resulting mixture was digested at 50° C. for 16 hours. The digested reaction mixture was then subjected to gel filtration through a column (1.5×14 cm) packed with Bio-Gel P-2 (available from Bio-Rad Company) using a 0.2 M ammonium formate solution as elute. In this way, the Vo fraction was collected and was then freeze-dried to give crude glycosaminoglycan.
On the other hand, ice-cooled 4 M guanidine hydrochloride was added to the tissues which were previously separated from the culture medium. The resulting mixture was left to stand overnight at a temperature of -20° C., and then homogenized. The obtained homogenate was left to stand overnight at room temperature and centrifuged at a speed of 8,500 rpm to obtain a supernatant. To the obtained liquid, water was added in an amount threefold that of the supernatant. Then, a 95% ethyl alcohol (containing 1.3% of potassium acetate) was added to the resulting mixture in an amount threefold that of the mixture to obtain a precipitate. This procedure was repeated twice, and the combined precipitates were dried in a desiccator. The obtained precipitates were dissolved in a 0.02 M tris-HCl buffer solution (pH 8.0) and digested with Pronase-P (trade name) (available from Kaken Kagaku Co., Ltd.) in the manner similar to the culture medium described above, thereby obtaining crude glycosaminoglycan.
As the xyloside compound, conventional O-paranitrophenyl-β-D-xylopyranoside, and two compounds according to the present invention viz. C-n-butyl-β-D-xylopyranoside and C-ethyl-β-D-xylopyranoside were used. The effects of these xyloside compounds on the total amount of ^35 S labelled glycosaminoglycan synthesized (^35 S uptake amount), the amount thereof liberated to the culture medium and the amount thereof remaining in the tissues were as shown in FIGS. 1 to 3.

Setting [4] is: ip, intraperitoneal, read-out: LD50 (ip).

`CC[C@@H]1OC[C@@H](O)[C@H](O)[C@H]1O` [C--Ethyl-β-D-xylopyranoside, C-Ethyl-β-D-xylopyranoside]: the LD50 (commonly the dose expected to kill half of the subjects tested) at 168 h in series [1] (setting [4]) is 2400 mg/kg; in series [1] (oral, read-out: LD50 (po)), 6900 mg/kg. Moreover, the “I.R. (inhibition ratio, tumor weight)” value in series [2] is 52.8%.

As for `CCCC[C@@H]1OC[C@@H](O)[C@H](O)[C@H]1O` [C--n-Butyl-β-D-xylopyranoside, C-n-Butyl-β-D-xylopyranoside], the LD50 at 168 h in series [1] (setting [4]) came out at 2400 mg/kg; in series [1] (oral, read-out: LD50 (po)) it was 5800 mg/kg. Moreover, the “I.R. (inhibition ratio, tumor weight)” value in series [2] was found to be 69.2%.

As to `O=[N+]([O-])c1ccc(O[C@@H]2OC[C@@H](O)[C@H](O)[C@H]2O)cc1` [O-paranitrophenyl-β-D-xylopyranoside], the “Effectiveness as initiator for the synthesis of chondroitin sulfate” value in series [3] is on record as “extremely effective”. In addition, in series [3] (1 mM), the “35S uptake of glycosaminoglycan” value was 40,800 count per minute (cpm). Besides, the activity at 1000 µM in series [3] (Gallus gallus, 1 mM, read-out: 35S labelled glycosaminoglycan liberated to the culture medium) was determined as 95%; in series [3] (Gallus gallus, 1 mM, read-out: Amount of 35S labelled glycosaminoglycan remaining in the tissues), 11%. Besides, the fold induction at 1000 µM in series [3] (Gallus gallus, 1 mM, read-out: 35S uptake of glycosaminoglycan relative to control) amounted to 2.35. For the same compound, in series [3] (concentration rising from 0.05 mM to 1.0 mM), the “35S uptake of glycosaminoglycan, concentration dependence” value is on record as “increased”.

These data come from patent publication US4446312A, “C-β-D-Xylopyranoside series compounds” (Seikagaku Kogyo Co., Ltd., priority 1980, dated 1984).
